Data: patent publication US12227500B2, “Substituted pyrrolo[2,3-b]pyridines for suppressing toxic endoplasmic reticulum stress” (THE TRUSTEES OF COLUMBIA UNIVERSITY IN THE CITY OF NEW YORK, priority 2018, dated 2025)

What was measured:
Assay in all cases: Radiolabeled ATP kinase assay, panel of 371 kinases (Table S6)
Assay type in all cases: biochemical
[1] = target: T1, panel of 371 human kinases (Homo sapiens, UniProt P45984); conditions: JNK2; 0.1 μM; 10 μM ATP; read-out: % Enzyme Activity (relative to DMSO controls)
T1 construct: purchased Reaction Biology Corp
Description: (§1) ; FIG. 38C). […]. Further targeted analyses, such as genetic knock-down or knock-out, may be warranted to parse the role of these additional kinases in our model of neurodegeneration.

[2] = target: T2, panel of 371 human kinases (Homo sapiens, UniProt P43405); conditions: SYK; 0.1 μM; 10 μM ATP; read-out: % Enzyme Activity (relative to DMSO controls)
T2 construct: purchased Reaction Biology Corp
Description: as §1

[3] = target: T3, panel of 371 human kinases (Homo sapiens, UniProt Q8IWQ3); conditions: BRSK2; 0.1 μM; 10 μM ATP; read-out: % Enzyme Activity (relative to DMSO controls)
T3 construct: purchased Reaction Biology Corp
T3 sequence (Q8IWQ3 whole entry): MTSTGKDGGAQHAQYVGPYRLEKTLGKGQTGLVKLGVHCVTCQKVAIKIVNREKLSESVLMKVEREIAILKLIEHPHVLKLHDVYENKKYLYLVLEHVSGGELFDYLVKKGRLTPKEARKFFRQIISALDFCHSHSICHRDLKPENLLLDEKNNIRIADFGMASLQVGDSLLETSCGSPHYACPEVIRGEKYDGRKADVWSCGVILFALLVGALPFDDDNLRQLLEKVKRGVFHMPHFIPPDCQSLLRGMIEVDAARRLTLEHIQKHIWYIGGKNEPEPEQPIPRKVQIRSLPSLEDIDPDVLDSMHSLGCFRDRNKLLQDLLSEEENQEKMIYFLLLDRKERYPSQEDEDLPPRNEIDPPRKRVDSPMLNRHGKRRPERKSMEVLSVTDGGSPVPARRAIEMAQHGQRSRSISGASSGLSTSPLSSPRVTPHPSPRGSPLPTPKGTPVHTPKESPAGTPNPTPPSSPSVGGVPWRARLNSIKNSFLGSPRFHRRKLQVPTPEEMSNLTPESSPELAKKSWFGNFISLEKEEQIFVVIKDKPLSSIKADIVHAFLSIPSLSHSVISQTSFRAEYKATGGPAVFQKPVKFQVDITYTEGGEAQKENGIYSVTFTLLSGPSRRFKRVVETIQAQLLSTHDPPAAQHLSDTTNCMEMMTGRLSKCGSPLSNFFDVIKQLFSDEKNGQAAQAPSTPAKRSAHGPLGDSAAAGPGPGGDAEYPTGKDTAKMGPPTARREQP
Description: as §1

[4] = target: T4, panel of 371 human kinases (Homo sapiens, UniProt Q9UEE5); conditions: DRAK1/STK17A; 0.1 μM; 10 μM ATP; read-out: % Enzyme Activity (relative to DMSO controls)
T4 construct: purchased Reaction Biology Corp
Description: as §1

[5] = target: T5, panel of 371 human kinases (Homo sapiens, UniProt Q9Y5S2); conditions: MRCKb/CDC42BPB; 0.1 μM; 10 μM ATP; read-out: % Enzyme Activity (relative to DMSO controls)
T5 construct: purchased Reaction Biology Corp
Description: as §1

[6] = target: T6, panel of 371 human kinases (Homo sapiens, UniProt Q16512); conditions: PKN1/PRK1; 0.1 μM; 10 μM ATP; read-out: % Enzyme Activity (relative to DMSO controls)
T6 construct: purchased Reaction Biology Corp
T6 sequence (Q16512 whole entry): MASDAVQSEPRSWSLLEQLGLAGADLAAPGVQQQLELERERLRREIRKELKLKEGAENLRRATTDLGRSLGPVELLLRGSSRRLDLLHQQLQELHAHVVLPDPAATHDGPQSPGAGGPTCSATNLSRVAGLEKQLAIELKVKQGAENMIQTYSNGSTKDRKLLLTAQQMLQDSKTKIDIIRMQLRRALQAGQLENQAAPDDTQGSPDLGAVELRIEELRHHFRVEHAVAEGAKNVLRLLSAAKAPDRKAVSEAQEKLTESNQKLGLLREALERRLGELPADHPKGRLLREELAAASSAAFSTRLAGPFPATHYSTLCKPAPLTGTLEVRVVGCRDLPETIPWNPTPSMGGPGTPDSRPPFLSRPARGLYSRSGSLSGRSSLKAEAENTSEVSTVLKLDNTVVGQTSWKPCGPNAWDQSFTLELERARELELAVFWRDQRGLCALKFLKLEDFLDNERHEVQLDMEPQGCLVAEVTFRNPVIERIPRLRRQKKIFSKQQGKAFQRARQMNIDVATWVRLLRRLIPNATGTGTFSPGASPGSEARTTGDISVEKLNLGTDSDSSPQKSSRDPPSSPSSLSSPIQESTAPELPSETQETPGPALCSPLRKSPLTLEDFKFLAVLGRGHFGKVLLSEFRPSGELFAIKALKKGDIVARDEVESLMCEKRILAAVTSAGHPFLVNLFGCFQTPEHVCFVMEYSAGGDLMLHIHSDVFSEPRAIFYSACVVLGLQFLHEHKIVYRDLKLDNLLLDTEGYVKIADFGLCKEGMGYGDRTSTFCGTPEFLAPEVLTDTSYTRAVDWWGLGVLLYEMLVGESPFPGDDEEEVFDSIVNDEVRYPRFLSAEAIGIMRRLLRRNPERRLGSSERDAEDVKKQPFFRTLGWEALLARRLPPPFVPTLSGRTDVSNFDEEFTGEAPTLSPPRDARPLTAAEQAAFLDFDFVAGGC
Description: as §1

[7] = target: T7, panel of 371 human kinases (Homo sapiens, UniProt Q06418); conditions: TYRO3/SKY; 0.1 μM; 10 μM ATP; read-out: % Enzyme Activity (relative to DMSO controls)
T7 construct: purchased Reaction Biology Corp
Description: as §1

[8] = target: T8, panel of 371 human kinases (Homo sapiens, UniProt P54762); conditions: EPHB1; 0.1 μM; 10 μM ATP; read-out: % Enzyme Activity (relative to DMSO controls)
T8 construct: purchased Reaction Biology Corp
Description: as §1

[9] = target: T9, panel of 371 human kinases (Homo sapiens, UniProt Q8NG66); conditions: NEK11; 0.1 μM; 10 μM ATP; read-out: % Enzyme Activity (relative to DMSO controls)
T9 construct: purchased Reaction Biology Corp
Description: as §1

[10] = target: T10, panel of 371 human kinases (Homo sapiens, UniProt Q9BYT3); conditions: STK33; 0.1 μM; 10 μM ATP; read-out: % Enzyme Activity (relative to DMSO controls)
T10 construct: purchased Reaction Biology Corp
T10 sequence (Q9BYT3 whole entry): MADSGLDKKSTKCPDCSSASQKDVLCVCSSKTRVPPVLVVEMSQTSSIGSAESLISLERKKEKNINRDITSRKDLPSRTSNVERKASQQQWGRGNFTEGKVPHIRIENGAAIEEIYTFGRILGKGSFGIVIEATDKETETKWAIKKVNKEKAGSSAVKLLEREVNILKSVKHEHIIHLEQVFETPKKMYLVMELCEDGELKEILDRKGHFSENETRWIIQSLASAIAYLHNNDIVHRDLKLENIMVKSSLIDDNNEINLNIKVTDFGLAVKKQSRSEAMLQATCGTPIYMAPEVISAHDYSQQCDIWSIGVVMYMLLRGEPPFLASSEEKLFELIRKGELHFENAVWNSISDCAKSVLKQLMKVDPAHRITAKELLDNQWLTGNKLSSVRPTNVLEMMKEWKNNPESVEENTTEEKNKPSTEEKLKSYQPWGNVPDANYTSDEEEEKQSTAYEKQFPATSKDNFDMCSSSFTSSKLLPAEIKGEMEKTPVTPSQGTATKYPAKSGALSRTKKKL
Description: as §1

[11] = target: T11, panel of 371 human kinases (Homo sapiens, UniProt Q9H093); conditions: SNARK/NUAK2; 0.1 μM; 10 μM ATP; read-out: % Enzyme Activity (relative to DMSO controls)
T11 construct: purchased Reaction Biology Corp
Description: as §1

[12] = target: T12, panel of 371 human kinases (Homo sapiens, UniProt P36888); conditions: FLT3; 0.1 μM; 10 μM ATP; read-out: % Enzyme Activity (relative to DMSO controls)
T12 construct: purchased Reaction Biology Corp
Description: as §1

[13] = target: T13, panel of 371 human kinases (Homo sapiens, UniProt Q6VAB6); conditions: KSR2; 0.1 μM; 10 μM ATP; read-out: % Enzyme Activity (relative to DMSO controls)
T13 construct: purchased Reaction Biology Corp
Description: as §1

[14] = target: T14, panel of 371 human kinases (Homo sapiens, UniProt Q12852); conditions: DLK/MAP3K12; 0.1 μM; 10 μM ATP; read-out: % Enzyme Activity (relative to DMSO controls)
T14 construct: purchased Reaction Biology Corp
Description: as §1

[15] = target: T15, panel of 371 human kinases (Homo sapiens, UniProt O60674); conditions: JAK2; 0.1 μM; 10 μM ATP; read-out: % Enzyme Activity (relative to DMSO controls)
T15 construct: purchased Reaction Biology Corp
Description: as §1

[16] = target: T16, panel of 371 human kinases (Homo sapiens, UniProt Q16584); conditions: for remaining activity at 0.1 µM: MLK3/MAP3K11, 10 μM ATP, read-out: % Enzyme Activity (relative to DMSO controls)
T16 construct: purchased Reaction Biology Corp
T16 sequence (Q16584 whole entry): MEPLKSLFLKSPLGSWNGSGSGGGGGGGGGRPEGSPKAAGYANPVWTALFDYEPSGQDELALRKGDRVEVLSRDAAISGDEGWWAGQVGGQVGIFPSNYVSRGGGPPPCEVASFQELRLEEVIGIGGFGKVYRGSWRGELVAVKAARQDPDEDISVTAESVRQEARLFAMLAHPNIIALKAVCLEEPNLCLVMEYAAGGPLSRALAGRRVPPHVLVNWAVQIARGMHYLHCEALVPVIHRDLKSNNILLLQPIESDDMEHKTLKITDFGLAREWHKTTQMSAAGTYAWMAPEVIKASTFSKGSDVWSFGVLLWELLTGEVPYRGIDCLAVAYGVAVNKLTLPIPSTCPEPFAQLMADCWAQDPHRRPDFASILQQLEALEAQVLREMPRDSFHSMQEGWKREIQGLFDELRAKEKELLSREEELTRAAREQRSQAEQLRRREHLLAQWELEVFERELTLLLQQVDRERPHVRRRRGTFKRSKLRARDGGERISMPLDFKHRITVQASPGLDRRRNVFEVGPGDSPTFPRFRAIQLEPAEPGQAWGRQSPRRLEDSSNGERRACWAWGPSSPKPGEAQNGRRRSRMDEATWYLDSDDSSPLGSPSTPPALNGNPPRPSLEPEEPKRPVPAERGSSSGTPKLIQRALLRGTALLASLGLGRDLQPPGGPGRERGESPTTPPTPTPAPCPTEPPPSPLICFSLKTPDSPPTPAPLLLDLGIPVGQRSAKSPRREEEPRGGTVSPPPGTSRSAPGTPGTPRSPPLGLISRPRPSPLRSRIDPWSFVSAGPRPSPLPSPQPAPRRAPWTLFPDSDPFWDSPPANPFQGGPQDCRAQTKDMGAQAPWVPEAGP
Description: as §1

[17] = target: T17, panel of 371 human kinases (Homo sapiens, UniProt Q6DT37); conditions: DMPK2; 0.1 μM; 10 μM ATP; read-out: % Enzyme Activity (relative to DMSO controls)
T17 construct: purchased Reaction Biology Corp
Description: as §1

[18] = target: T18, panel of 371 human kinases (Homo sapiens, UniProt P00519); conditions: ABL1; 0.1 μM; 10 μM ATP; read-out: % Enzyme Activity (relative to DMSO controls)
T18 construct: purchased Reaction Biology Corp
Description: as §1

[19] = target: T19, panel of 371 human kinases (Homo sapiens, UniProt Q13163); conditions: MEK5; 0.1 μM; 10 μM ATP; read-out: % Enzyme Activity (relative to DMSO controls)
T19 construct: purchased Reaction Biology Corp
Description: as §1

[20] = target: T20, panel of 371 human kinases (Homo sapiens, UniProt O15146); conditions: MUSK; 0.1 μM; 10 μM ATP; read-out: % Enzyme Activity (relative to DMSO controls)
T20 construct: purchased Reaction Biology Corp
T20 sequence (O15146 24-869): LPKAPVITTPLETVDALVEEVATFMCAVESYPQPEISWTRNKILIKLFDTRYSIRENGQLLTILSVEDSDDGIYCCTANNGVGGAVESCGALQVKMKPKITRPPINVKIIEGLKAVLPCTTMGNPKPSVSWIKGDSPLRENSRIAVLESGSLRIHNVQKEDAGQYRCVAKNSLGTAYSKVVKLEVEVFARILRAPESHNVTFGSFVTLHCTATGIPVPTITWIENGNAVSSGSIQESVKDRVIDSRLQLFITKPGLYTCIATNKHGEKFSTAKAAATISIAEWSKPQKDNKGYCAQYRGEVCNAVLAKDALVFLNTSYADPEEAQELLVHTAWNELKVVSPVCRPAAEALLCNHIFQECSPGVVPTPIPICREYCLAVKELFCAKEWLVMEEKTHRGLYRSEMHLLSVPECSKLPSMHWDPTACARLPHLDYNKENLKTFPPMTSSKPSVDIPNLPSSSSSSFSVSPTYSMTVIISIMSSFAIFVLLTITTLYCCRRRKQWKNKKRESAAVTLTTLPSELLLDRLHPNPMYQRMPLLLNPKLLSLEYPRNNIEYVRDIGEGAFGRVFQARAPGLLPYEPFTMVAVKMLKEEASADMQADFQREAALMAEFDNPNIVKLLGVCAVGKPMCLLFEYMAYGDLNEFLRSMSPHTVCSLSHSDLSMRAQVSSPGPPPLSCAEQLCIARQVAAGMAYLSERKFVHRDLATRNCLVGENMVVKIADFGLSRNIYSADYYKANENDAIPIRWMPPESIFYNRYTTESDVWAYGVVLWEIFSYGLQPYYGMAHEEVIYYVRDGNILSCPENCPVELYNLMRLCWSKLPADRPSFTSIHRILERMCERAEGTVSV
Description: as §1

[21] = target: T21, panel of 371 human kinases (Homo sapiens, UniProt P08922); conditions: ROS/ROS1; 0.1 μM; 10 μM ATP; read-out: % Enzyme Activity (relative to DMSO controls)
T21 construct: purchased Reaction Biology Corp
Description: as §1

[22] = target: T22, panel of 371 human kinases (Homo sapiens, UniProt Q15835); conditions: GRK1; 0.1 μM; 10 μM ATP; read-out: % Enzyme Activity (relative to DMSO controls)
T22 construct: purchased Reaction Biology Corp
Description: as §1

[23] = target: T23, panel of 371 human kinases (Homo sapiens, UniProt Q52WX2); conditions: SBK1; 0.1 μM; 10 μM ATP; read-out: % Enzyme Activity (relative to DMSO controls)
T23 construct: purchased Reaction Biology Corp
Description: as §1

[24] = target: T24, panel of 371 human kinases (Homo sapiens, UniProt Q02763); conditions: TIE2/TEK; 0.1 μM; 10 μM ATP; read-out: % Enzyme Activity (relative to DMSO controls)
T24 construct: purchased Reaction Biology Corp
T24 sequence (Q02763 23-1124): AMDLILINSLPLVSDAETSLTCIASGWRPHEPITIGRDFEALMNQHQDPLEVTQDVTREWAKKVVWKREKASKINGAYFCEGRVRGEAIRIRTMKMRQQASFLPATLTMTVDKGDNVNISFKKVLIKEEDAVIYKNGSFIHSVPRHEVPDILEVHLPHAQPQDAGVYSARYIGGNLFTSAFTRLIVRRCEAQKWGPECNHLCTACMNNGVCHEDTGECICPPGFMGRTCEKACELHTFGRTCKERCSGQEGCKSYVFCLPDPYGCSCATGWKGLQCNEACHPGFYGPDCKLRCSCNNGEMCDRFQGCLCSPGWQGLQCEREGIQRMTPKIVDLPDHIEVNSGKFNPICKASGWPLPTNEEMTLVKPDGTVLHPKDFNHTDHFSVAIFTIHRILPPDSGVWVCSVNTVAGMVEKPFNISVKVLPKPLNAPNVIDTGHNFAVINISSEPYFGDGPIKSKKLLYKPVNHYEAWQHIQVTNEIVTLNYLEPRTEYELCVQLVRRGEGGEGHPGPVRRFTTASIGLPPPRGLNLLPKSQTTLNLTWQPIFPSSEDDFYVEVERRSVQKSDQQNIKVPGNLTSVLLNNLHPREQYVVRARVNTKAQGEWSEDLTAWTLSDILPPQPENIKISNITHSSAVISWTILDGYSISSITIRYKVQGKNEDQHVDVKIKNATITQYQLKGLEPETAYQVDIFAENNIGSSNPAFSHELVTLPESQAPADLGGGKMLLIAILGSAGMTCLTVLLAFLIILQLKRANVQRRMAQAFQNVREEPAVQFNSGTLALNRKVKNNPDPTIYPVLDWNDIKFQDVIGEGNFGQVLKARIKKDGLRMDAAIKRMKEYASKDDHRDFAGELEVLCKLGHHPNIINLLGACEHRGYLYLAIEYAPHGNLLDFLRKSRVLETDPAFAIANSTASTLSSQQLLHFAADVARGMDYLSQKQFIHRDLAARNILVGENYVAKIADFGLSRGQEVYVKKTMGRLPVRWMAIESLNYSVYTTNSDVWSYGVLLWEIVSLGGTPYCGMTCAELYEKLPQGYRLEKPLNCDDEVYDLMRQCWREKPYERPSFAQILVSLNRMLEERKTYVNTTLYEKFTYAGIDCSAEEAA
Description: as §1

SMILES | remaining activity at 0.1 µM [1] | remaining activity at 0.1 µM [2] | remaining activity at 0.1 µM [3] | remaining activity at 0.1 µM [4] | remaining activity at 0.1 µM [5] | remaining activity at 0.1 µM [6] | remaining activity at 0.1 µM [7] | remaining activity at 0.1 µM [8] | remaining activity at 0.1 µM [9] | remaining activity at 0.1 µM [10] | remaining activity at 0.1 µM [11] | remaining activity at 0.1 µM [12] | remaining activity at 0.1 µM [13] | remaining activity at 0.1 µM [14] | remaining activity at 0.1 µM [15] | remaining activity at 0.1 µM [16] | remaining activity at 0.1 µM [17] | remaining activity at 0.1 µM [18] | remaining activity at 0.1 µM [19] | remaining activity at 0.1 µM [20] | other results
CN1CCN(Cc2ccc(-c3cnc4[nH]cc(-c5ccc6[nH]ccc6c5)c4c3)cc2)CC1 [Compound 1, 3-(1H-Indol-5-yl)-5-(4-((4-methylpiperazin-1-yl)methyl)phenyl)-1H-pyrrolo[2,3-b]pyridine, reference compound] | 99.4% | 89.6% | 98% | 88.7% | 100% | 94% | 86.8% | 83% | 107% | 72.6% | 82.8% | 22.3% | 102% | 90.8% | 90.2% | 56.4% | 76.8% | 68.2% | 97.6% | 101% | remaining activity at 0.025 µM ([16]; 0.025 μM, read-out: MLK3 activity remaining): 56.4%; remaining activity at 0.1 µM [21]: 96%; remaining activity at 0.1 µM [22]: 107%; remaining activity at 0.1 µM [23]: 99%; remaining activity at 0.1 µM [24]: 95%
OCCN1CCN(Cc2ccc(-c3cnc4[nH]cc(-c5cccc(Cl)c5)c4c3)cc2)CC1 [Compound 12k, 2-(4-(4-(3-(3-Chlorophenyl)-1H-pyrrolo[2,3-b]pyridin-5-yl)benzyl)piperazin-1-yl)ethan-1-ol] | 97% | 93.9% | 93.5% | 88.8% | 89% | 95% | 94.3% | 98.3% | 101% | 88.6% | 59.5% | 29.4% | 106% | 82.8% | 93% | 67% | 61.3% | 76.7% | 85.6% | 86.7% | remaining activity at 0.1 µM [21]: 94.2%; remaining activity at 0.1 µM [22]: 92%; remaining activity at 0.1 µM [23]: 98.7%; remaining activity at 0.1 µM [24]: 103%
